# Laboratory results as given in patent publication US8673934B2, “Anti-infective agents and/or immunomodulators used for preventive therapy following an acute cerebrovascular accident” (priority 2002, dated 2014).
# B1: IFN-γ: pro-inflammatory cytokine, interferon (protein, UniProt P01579 24-161, looked up)
# Interferon gamma: QDPYVKEAENLKKYFNAGHSDVADNGTLFLGILKNWKEESDRKIMQSQIVSFYFKLFKNFKDDQSIQKSVETIKEDMNVKFFNSNKKKRDDFEKLTNYSVTDLNVQRKAIHELIQVMAELSPAAKTGKRKRSQMLFRG
# Columns and labels:
# [1] = tested on: mouse model of cerebral ischemia (MCAO); stroke-induced spontaneous bacterial infection (more than 95% Escherichia coli)
# Procedure: According to the mouse model of cerebral ischemia, a generally accepted model of ischemic stroke, mice were operated according to the MCAO. In this operation, the A. cerebri media is occluded for about 60 minutes, leading to a cerebral infarction typical for this model. As a control, we use the so-called Sham-operation, in which the animals are also MCAO-operated, but in which the A. cerebri media is only occluded for about 1 minute. For the rest, the two paradigms are identical.
# [2] = tested on: mouse model of cerebral ischemia (MCAO); stroke-induced immunodepression and bacterial infection; assay: Immunomodulating therapy in mouse model of cerebral ischemia (MCAO): lymphopenia, lymphocyte/monocyte function, infections, survival; format: in vivo
# Procedure: According to the mouse model of cerebral ischemia, mice were operated according to the MCAO. In this operation, the A. cerebri media is occluded for about 60 minutes, leading to a cerebral infarction typical for this model. As a control, we use the so-called Sham-operation, in which the animals are also MCAO-operated, but in which the A. cerebri media is only occluded for about 1 minute. For the rest, the two paradigms are identical. Thus, the perioperative stress can be doubtlessly excluded as a systemic mistake for the following results.
# This severe lymphopenia persists at least for 14 days and also affects the spleen and the thymus (FIG. 6:d-g), which constitute essential organs of immunological maturation. Besides the mere numeric decrease, there also occurs a functional impairment with a disturbance of the cytokine secretion capacity after stimulation (FIG. 6: h and j). Besides the disturbance of monocyte function, which manifests as a disturbance of TNF-α secretion for 2 days after LPS-stimulation, one can also detect a lymphocyte alteration after ConA-stimulation; this alteration persisting for 14 days after the stroke and mainly causing a Th1- to Th2-shift (alteration of the IFN-γ/IL4 ratio), which means a loss of pro-inflammatory potential. […] B- and NK-cells only slightly decrease in the blood after the OP-stress. In the spleen and in the thymus, no major stress-induced alterations are detected and the functional parameters of the monocytes and lymphocytes remain at the control level. […] In contrast to this, no infection is found in the control animals (Sham-operated).
# Furthermore, the blockade of the SNS by propranolol (30 mg/kg body weight) also prevents the disturbance of function of the remaining monocytes (TNF-α secretion) and of the lymphocytes (IFN-γ/IL-4 ratio) (FIG. 7). The SNS blockade can also prevent the development of infections in the lung (pneumonia) and in the blood (sepsis) (FIG. 7). The dose of propranolol (indicated as mg/kg body weight), which is required for the prevention or drastic reduction of the bacterial infections, also prevents the disturbed INF-γ secretion of the lymphocytes (FIG. 8). To this aim, the administration of propranolol has to be accomplished at a very early stage (immediately up to 12 hours) after the stroke. An application 24 hours after the stroke event has no effect (FIG. 8). An early (before the stroke) chemical sympathicolysis by 6-hydroxydopamin (6-OHDA) as well prevents the stroke-induced, disturbed INF-γ function of the lymphocytes and blocks the severe bacterial infections (FIG. 8).
# [3] = after experimental stroke in mice, FIG. 7
# [4] = early (before the stroke) chemical sympathicolysis, FIG. 8
molecule,measurement,setting,value
"COc1c(N2C[C@@H]3CCCN[C@@H]3C2)c(F)cc2c(=O)c(C(=O)O)cn(C3CC3)c12 [moxifloxacin, 1-cyclopropyl-6-fluoro-1,4-dihydro-8-methoxy-7-[(4aS,7aS)-octahydro-6H-pyrrolo[3,4-b]-pyridin-6-yl]-4-oxoquinoline-3-carboxylic acid]",neurological deficit,[1]; early administration within the first 24 h,drastically reduced
same,"infections (pneumonia, sepsis)",[1]; very early (0-12 h) and somewhat later (12-24 h after acute stroke) treatment scheme,prevented
same,fever/hyperthermia,"[1]; very early (0-12 h) and somewhat later (12-24 h after acute stroke) treatment scheme, FIG. 3",significantly reduced
same,neurological deficit after stroke,"[1]; very early (0-12 h) and somewhat later (12-24 h after acute stroke) treatment scheme, FIG. 5",significantly reduced
CC(C)NCC(O)COc1cccc2ccccc12 (centres unmarked) [propranolol],disturbance of function of the lymphocytes (IFN-γ/IL-4 ratio),"[2]; 30 mg/kg body weight, FIG. 7",prevents
same,disturbance of function of the remaining monocytes (TNF-α secretion),"[2]; 30 mg/kg body weight, FIG. 7",prevents
same,survival after stroke,"[2]; 30 mg/kg body weight, FIG. 10",drastically improve
same,infections,"[2]; 30 mg/kg body weight, FIGS. 7 and 8",prevent
same,development of infections in the lung (pneumonia) and in the blood (sepsis),"[2]; SNS blockade, FIG. 7",prevent
same,decrease of T- and NK-cells,[2]; [3],prevent
same,degree of B-cell lymphopenia,[2]; [3],significantly reduce
same,effect on bacterial infections and INF-γ secretion of application 24 hours after the stroke event,"[2]; application 24 hours after the stroke, FIG. 8",no effect
same,disturbed INF-γ secretion of the lymphocytes,"[2]; dose required for prevention of bacterial infections, administration immediately up to 12 hours after the stroke, FIG. 8",prevents
"NCCc1cc(O)c(O)cc1O [6-hydroxydopamin (6-OHDA), 6-hydroxydopamin]",severe bacterial infections,[2]; [4],blocks
same,"stroke-induced, disturbed INF-γ function of the lymphocytes",[2]; [4],prevents
B1,germ number in the lung,"[2]; 2 μg, FIG. 9",reduce
same,germ number in the blood,"[2]; 2 μg, even more pronounced than in the lung, FIG. 9",reduce
